{"source": "patent US20210030703A1", "about": "“USE OF CALORIC RESTRICTION MIMETICS FOR POTENTIATING CHEMO-IMMUNOTHERAPY FOR THE TREATMENT OF CANCERS” (INSERM (INSTITUT NATIONAL DE LA SANTÉ ET DE LA RECHERCHE …, priority 2018, published 2021)", "key": {"[1]": {"conditions": "background, reference (9); cited from earlier work"}, "whole MCA205 tumors": {"system": "whole MCA205 tumors", "assay": "RNA-seq analyses of whole tumors", "assay_type": "in vivo, C57B1/6 mice", "conditions": "day 3 post-chemotherapy (MTX); data not shown"}, "MCA205 fibrosarcoma [2]": {"system": "MCA205 fibrosarcoma", "assay": "Subcutaneous MCA205 fibrosarcoma: tumor growth, cure and survival under chemo-immunotherapy", "assay_type": "in vivo, C57B1/6 mice", "conditions": "for Efficacy of MTX + ICIs (anti-PD-1 plus anti-CTLA-4) chemo-immunotherapy when the CRM is added: figure legends FIG. 2, 3, 4, 6", "protocol": "Mouse strain and housing. Six- to 8-week-old wild-type female C57B1/6 mice were obtained from Envigo RMS SARL (Gannat, France). Animals were maintained in specific pathogen-free conditions in a temperature-controlled environment with 12 h light, 12 h dark cycles and received food and water ad libitum (unless precised otherwise). Animal experiments were in compliance with the EU Directive 63/2010 and approved by the Ethical Committee of the Cordeliers Research Center (Paris, France). All mouse experiments were randomized and blinded, and sample sizes were calculated to detect a statistically significant effect.\nIn vivo experimentations. Tumor engraftment was performed through subcutaneous injection of 3×10^5 MCA205 fibrosarcoma tumor cells (in 100 μl PBS) in the right flank of the mice. Tumor volume was monitored using a digital caliper and calculated according to the formula: volume=length×width×height/8×4/3 pi. When tumor reached 20 mm^3 on average, mice underwent fasting (48 hours without food but ad libitum access to water) or were given caloric restriction mimetics (CRMs) such as aspirin (Asp; 10 mg/kg i.p. in 200 μl phosphate buffered saline [PBS] five times per week), hydroxycitrate (HC; 5 mg/ml in drinking water daily) or spermidine (Spd; 50 mg/kg i.p. in 200 μl Earle's balanced salt solution three times per week), or were treated with mitoxantrone (MTX; 5.17 mg/kg i.p. in 200 μl PBS), or with the immune checkpoint inhibitors (ICIs) anti-PD-1 (10 mg/kg i.p. in 200 μl PBS) and/or anti-CTLA-4 (5 mg/kg i.p. in 200 μl PBS). Tumor size was carefully monitored up to 50 days post-MTX. Antitumor immunity induced by the treatment in cured mice was challenged by subcutaneously re-engrafting the same tumor (3×10^5 syngeneic MCA205 fibrosarcoma cells) in one flank while an antigenically unrelated cancer (3×10^5 syngeneic TC1 lung carcinoma cells) was implanted into the contralateral flank.\nStatistical analyses. For tumor size comparison, Student unpaired t test or one-way ANOVA (Holm-Sidak) were performed. All statistical analyses were performed using GraphPad Prism version 6 for Windows (GraphPad Software, La Jolla, Calif., USA). Differences were considered significant when p value<0.05."}, "MCA205 fibrosarcoma [3]": {"system": "MCA205 fibrosarcoma", "assay": "Subcutaneous MCA205 fibrosarcoma: tumor growth, cure and survival under chemo-immunotherapy", "assay_type": "in vivo, C57B1/6 mice"}, "[4]": {"system": "immune infiltrate of MCA205 tumors", "assay": "Immunophenotyping of the tumor immune infiltrate by flow cytometry", "assay_type": "in vivo, C57B1/6 mice", "conditions": "data not shown", "protocol": "3 or 11 days post-chemotherapy (d3 or d11), mice were euthanized and the tumors were withdrawn and placed in gentleMACS C tubes (ref 130-096-334 from Miltenyi BiotecTM) previously filled with 1 ml of DMEM or RPMI medium, and immediately put on ice. […] Then, cells were stained with a live dead dye (ref L34959 from ThermoFisher ScientificTM) and an FCblock receptor targeting antibody. For the surface stainings, several anti-mouse fluorochrome-coupled antibodies were employed, that were for 1) myeloid cells “staining 1”: anti-CD45 APC-Fire750 (clone 30E-11, ref 130154 BiolegendTM), anti-Ly-6G PE (clone 1A8, ref 551461 BDTM), anti-Ly-6C FITC (clone AL-21, ref 553104, BDTM), anti-CD11b V450 (clone M1/70, ref 560455 BDTM), anti-CD11c PE-Cy7 (clone HL3, ref 558470 BDTM), anti-CD80 PerCP-Cy5.5 (16-10A1, ref 104722 BiolegendTM), and anti-MHC-II APC (clone M5/114.15.2, ref 107614 BiolegendTM) 2) T-cells “staining 2”: anti-CD3 APC (clone 17A2, ref 17-0032-82 eBioscienceTM), anti-CD8 PE (clone 53-6.7, ref 553032 BDTM), anti-CD4 PerCP-Cy5.5 (clone RM4-5, ref 45-0042-82 eBioscienceTM), anti-CD25 PE-Cy7 (clone PC61.5, ref 25-0251-82 InvitrogenTM), anti-ICOS BV421 (clone 7E.17G9, ref 564070 BDTM) and anti-PD-1 APC-Fire750 (clone 29F.1Al2, ref 135240 BiolegendTM) 3) PD-L1 expressing-cells “staining 4”: anti-CD45 AlexaFluor647 (clone 30E-11, ref 103-124 BiolegendTM), anti-PD-L1 BV421 (clone MIHS, ref 564716 BDTM) and anti-PD-L2 PE-Dazzle594 (clone TY25, ref 107215 BiolegendTM) 4) NKT cells “staining 5”: anti-CD3 FITC (clone 17A2, ref 11-00-32-82 eBioscienceTM) and anti-NK1.1 PerCP-Cy5.5 (clone PK136, ref 551114 BDTM). After the fixation and permeabilization of the cells (thanks to the Cytofix/Cytoperm kit, ref 554714 BDTM for stainings 1, 3, 4 and 5; and with the Foxp3/Transcription Factor kit, ref 00-5523-00 eBioscienceTM for staining 2), intracellular stainings were performed using for “staining 2”: anti-FoxP3 FITC (clone FJK-16s, ref 11-5773-82 eBioscienceTM) and for “staining 3”: anti-IFNg APC (clone XMG1.2, ref 505-810 BiolegendTM), anti-TNFα APC-Cy7 (clone MP6-XT22, ref 506344 BiolegendTM) and anti-IL-2 PE-Dazzle 594 (clone JES6-5H4, ref 503-840 BiolegendTM). Finally, cells were resuspended in FACS buffer and analyzed on a flow cytometer BD LSR II."}, "TC1 lung carcinoma cells": {"system": "TC1 lung carcinoma cells", "assay": "Rechallenge of cured mice with antigenically unrelated TC1 cells in the contralateral flank", "assay_type": "in vivo, C57B1/6 mice", "conditions": "mice cured from MCA205 following MTX+ICIs+Spd treatment (FIG. 4G)", "protocol": "(§1) In vivo experimentations. Tumor engraftment was performed through subcutaneous injection of 3×10^5 MCA205 fibrosarcoma tumor cells (in 100 μl PBS) in the right flank of the mice. […] Tumor size was carefully monitored up to 50 days post-MTX. Antitumor immunity induced by the treatment in cured mice was challenged by subcutaneously re-engrafting the same tumor (3×10^5 syngeneic MCA205 fibrosarcoma cells) in one flank while an antigenically unrelated cancer (3×10^5 syngeneic TC1 lung carcinoma cells) was implanted into the contralateral flank."}, "[5]": {"system": "MCA205 fibrosarcoma cells", "assay": "Rechallenge of cured mice with the same tumor (MCA205)", "assay_type": "in vivo, C57B1/6 mice", "conditions": "mice cured from MCA205 following MTX+ICIs+Spd treatment (FIG. 4G)", "protocol": "as §1"}}, "data": [{"smiles": "O=C(O)C[C@]1(O)C[C@H](CCCCCCc2ccc(Cl)cc2Cl)OC1=O", "note": "[SB2049901, (3R,5S)-re1-5-[6-(2,4-Dichlorophenyl)hexyl]tetrahydro-3-hydroxy-2-oxo-3-furanacetic acid]", "values": [{"measurement": "Efficacy of anticancer chemotherapy with immunogenic cell death (ICD) inducers", "setting": "[1]", "value": "able to improve the efficacy"}]}, {"smiles": "NCCCCNCCCN", "note": "[spermidine, H2N—(CH2)3-NH(CH2)4-NH2]", "values": [{"measurement": "Evidence of local immunostimulation", "setting": "whole MCA205 tumors", "value": "failed to yield convincing evidence"}, {"measurement": "Tumor-free mice", "setting": "MCA205 fibrosarcoma [2]; MTX pre-treatment associated with the CRM, then CTLA-4/PD-1-blocking antibodies (FIG. 6)", "value": "8 out of 10"}, {"measurement": "Efficacy of MTX + ICIs (anti-PD-1 plus anti-CTLA-4) chemo-immunotherapy when the CRM is added", "setting": "MCA205 fibrosarcoma [2]", "value": "significantly improves tumor outcome"}, {"measurement": "Efficacy of MTX + ICIs (anti-PD-1 plus anti-CTLA-4) chemo-immunotherapy when the CRM is added", "setting": "MCA205 fibrosarcoma [2]; listed as Spd", "value": "further enhanced"}, {"measurement": "Response to CTLA-4/PD-1-blockade", "setting": "MCA205 fibrosarcoma [2]; pretreated with the CRM alone (without MTX), data not shown", "value": "did not respond"}, {"measurement": "Cure of established tumor", "setting": "MCA205 fibrosarcoma [2]; spermidine i.p. 3 times per week + MTX chemotherapy + dual CTLA-4/PD-1-targeting immunotherapy", "value": "7 out of 9"}, {"measurement": "Efficacy of anticancer chemotherapy with immunogenic cell death (ICD) inducers", "setting": "[1]", "value": "able to improve the efficacy"}, {"measurement": "Cure rate", "setting": "MCA205 fibrosarcoma [3]; CRM added to OXA+PD-1 blockade", "value": 70, "unit": "%"}, {"measurement": "Cured mice", "setting": "MCA205 fibrosarcoma [3]; CRM added to OXA+PD-1 blockade", "value": "7 out of 10"}, {"measurement": "Efficacy of OXA and anti-PD-1 combination when the CRM is added", "setting": "MCA205 fibrosarcoma [3]; figure legend FIG. 7", "value": "further enhanced"}, {"measurement": "Increase in the density of total CD3+ and CD8+ T cell infiltrate", "setting": "[4]; combined with MTX", "value": "neither HC nor spermidine"}, {"measurement": "Myeloid infiltrate", "setting": "[4]; day 3 post-chemotherapy (MTX)", "value": "no major increments"}, {"measurement": "Macrophage subpopulation with an M1 phenotype (Ly6G-F4/80+CD11c-CD11b+CD38+)", "setting": "[4]; day 11 post-MTX", "value": "expansion"}, {"measurement": "Tumor formation by TC1 cancer cells injected into the opposite flank", "setting": "TC1 lung carcinoma cells", "value": "yielded tumors"}, {"measurement": "Outgrowth of reinjected MCA205 cancer cells", "setting": "[5]", "value": "did not led to the outgrowth"}]}, {"smiles": "CC1=NN(c2ccc(C(=O)O)cc2)C(=O)/C1=C\\c1ccc(-c2cc(C)c(C)cc2[N+](=O)[O-])o1", "note": "[C646]", "values": [{"measurement": "Efficacy of anticancer chemotherapy with immunogenic cell death (ICD) inducers", "setting": "[1]", "value": "able to improve the efficacy"}]}, {"smiles": "O=C1[O][Pt]2([NH][C@@H]3CCCC[C@H]3[NH]2)[O]C1=O", "note": "[OXA, [(1R,2R.)-cyclohexane-1,2-diamine](ethanedioato-O,O′)platinum(II)]", "values": [{"measurement": "Cure rate", "setting": "MCA205 fibrosarcoma [3]; OXA+PD-1 blockade", "value": 40, "unit": "%"}]}]}
